≈ marks a conversion by molar mass, not a printed value.
Tested on: Staphylococcus aureus
Assay: Antimicrobial activity against Staphylococcus aureus 2171 by broth microdilution method
Assay type: functional

SMILES	MIC [µg/mL]
CC1(C)S[C@@H]2[C@H](NC(=O)[C@H](N)c3ccccc3)C(=O)N2[C@H]1C(=O)O [AMPICILLIN]	4 (≈ 11.4 µM)
CCC[C@@H]1C[C@@H](C(=O)N[C@@H]([C@H]2O[C@H](SC)[C@H](O)[C@@H](O)[C@H]2O)[C@H](C)Cl)N(C)C1 [CLINDAMYCIN]	≥ 128
CCN1CCN(c2cc3c(cc2F)c(=O)c(C(=O)O)cn3C2CC2)CC1 [ENROFLOXACIN]	8 (≈ 22.3 µM)
CC[C@H]1OC(=O)[C@H](C)[C@@H](O[C@H]2C[C@@](C)(OC)[C@@H](O)[C@H](C)O2)[C@H](C)[C@@H](O[C@@H]2O[C@H](C)C[C@H](N(C)C)[C@H]2O)[C@](C)(O)C[C@@H](C)C(=O)[C@H](C)[C@@H](O)[C@]1(C)O [ERYTHROMYCIN]	≥ 64
Cc1onc(-c2ccccc2)c1C(=O)N[C@@H]1C(=O)N2[C@@H]1SC(C)(C)[C@@H]2C(=O)O [OXACILLIN]	0.5 (≈ 1.25 µM)
CC1(C)S[C@@H]2[C@H](NC(=O)Cc3ccccc3)C(=O)N2[C@H]1C(=O)O [PENICILLIN G]	8 (≈ 23.9 µM)
CN(C)[C@@H]1C(O)=C(C(N)=O)C(=O)[C@@]2(O)C(O)=C3C(=O)c4c(O)cccc4[C@@](C)(O)[C@H]3C[C@@H]12 [TETRACYCLINE]	32 (≈ 72 µM)
COc1cc(Cc2cnc(N)nc2N)cc(OC)c1OC [TRIMETHOPRIM]	≥ 128

Reference: ChEMBL document CHEMBL1629698, “Identification of the novel dfrK-carrying transposon Tn559 in a porcine methicillin-susceptible Staphylococcus aureus ST398 strain” (2010)
